{"source": "patent US7906520B2", "about": "“Methods for treating pain” (The General Hospital Corporation, priority 2003, dated 2011)", "type_in_all_cases": "in vivo", "key": {"[1]": {"system": "SNI model of neuropathic pain", "assay": "Spared nerve injury (SNI) model of neuropathic pain, von Frey and acetone tests", "method": "FIGS. 8A-8D represent a series of graphs showing the effect of DAHP on nociceptive behavior in the SNI model of neuropathic pain. Figures on the left show the threshold to mechanical stimuli applied with von Frey hairs (von Frey threshold). Figures on the right show the duration of paw licking, shaking and lifting following acetone application to the paw as a measure for cold allodynia. In FIG. 8A, rats were treated with DAHP (180 mg/kg/d i.p.) for three days starting three days after surgery (early treatment). Nociceptive behavior was assessed daily before and after drug injection. In FIG. 8B, the treatment period was extended to five days (180 mg/kg/d i.p.) starting three days after surgery and pain behavior was assessed daily before and after drug injection and once every second day for an additional week after stopping the daily drug injections. In FIG. 8C, treatment with DAHP (180 mg/kg/d i.p. for 5 days) was started 17 days after surgery i.e. in the chronic phase without any treatment in the early phase. Nociceptive behavior was assessed once daily 3 h after drug injection. In FIG. 8D, animals received a continuous spinal infusion of DAHP (6 mg/kg/d) for 14 days. The infusion was started directly after surgery. Nociceptive behavior was assessed once daily.\nFIGS. 16A-16D show the effects of systemic (16A) and intrathecal (16B) treatment with methotrexate (MTX) on the nociceptive behavior in the SNI model of neuropathic pain. […] In FIG. 16A MTX (0.2 mg/kg/d) was injected i.p. once daily starting 5 days after SNI surgery. Nociceptive behavior was assessed once daily three hours after drug injection. In FIG. 16B, MTX was administered as continuous intrathecal infusion (0.1 mg/kg/d for 14 days) starting right after SNI surgery. Nociceptive behavior was assessed once daily. FIGS. 16C and 16D show the body weight gain of animals during systemic (16C) and intrathecal (16D) MTX treatment. Determination of the weight gain was used to assess general well-being and potential toxic effects of MTX.\nIn this graph, closed triangles represent vehicle, i.p.; open triangles represent DAHP at 90 mg/kg/day, i.p.; open squares represent DAHP at 180 mg/kg/day, i.p.; and open circles represent DAHP at 270 mg/kg/day, i.p.\nAll procedures were performed in accordance with Massachusetts General Hospital animal care regulations. Adult male Sprague Dawley rats (200-300 g) were anesthetized with halothane. For the sciatic nerve transection (axotomy), the left sciatic nerve was exposed at the mid thigh level, ligated with 3/0 silk, and sectioned distally. The wound was sutured in two layers, and the animals were allowed to recover. For SNI the tibial and peroneal branch of the sciatic nerve were ligated and transected whereas the sural nerve was spared. For CCI, the sciatic nerve was loosely ligated with dexon 4/0 (three ligatures) and for the spinal ligation model the L5 spinal segmental nerve was ligated."}, "SNI model": {"system": "SNI model", "assay": "SNI model, L-NAME versus DAHP", "details": "DAHP 120 mg/kg i.p. single dose vs L-NAME 25 mg/kg i.p.", "method": "In this figure, closed circles represent nNOS knockout mice with DAHP; open circles, nNOS knock out mice with vehicle; closed triangles, wild type mice with DAHP; and open triangles, wild type mice with vehicle. […] In this figure, closed triangles represent L-NAME administration; open circles, L-NAME+DAHP administration; closed circles, DAHP administration; and open triangles, vehicle administration. L-NAME was administered at 25 mg/kg, i.p., single dose, and DAHP was administered at 120 mg/kg, i.p., single dose. The antinociceptive efficacy of this high L-NAME dose is weaker (about 50%) than that of a moderate dose of DAHP."}, "BH4 biosynthesis": {"system": "BH4 biosynthesis", "assay": "Tissue biopterin and neopterin levels after SNI (LC-MS/MS)", "details": "with DAHP administration", "method": "FIG. 30 is a series of bar graphs quantifying the levels of the BH4 metabolites biopterin and neopterin in the DH, DRG, and ScN following SNI surgery with and without DAHP treatment, compared to control.\nUsing the preferred method, tissue neopterin and biopterin levels were determined with a liquid chromatography tandem mass spectrometry method. After acidic pH oxidation with iodine according to Fukushima and Nixon (Methods Enzymol. 66: 429-436, 1980) tissues were extracted by solid phase extraction employing Oasis MCX extraction cartridges and concentrations of total biopterin, neopterin and the internal standard rhamnopterin were determined by liquid chromatography coupled to tandem mass spectrometry. HPLC analysis was done under gradient conditions using a Nucleosil C8 column. MS/MS analyses were performed on an API 4000 Q TRAP triple quadrupole mass spectrometer with a Turbo Ion Spray source. Precursor-to-product ion transitions of m/z 236 192 for biopterin, m/z 252 192 for neopterin, m/z 265 192 for rhamnopterin were used for the MRM. Concentrations of the calibration standards, quality controls and samples were evaluated by Analyst software 1.4 (Applied Biosystems). Linearity of the calibration curve was proven from 0.1-50 ng/ml. The coefficient of correlation for all measured sequences was at least 0.99. The intra-day and inter-day variability was <10%."}, "[2]": {"details": "DAHP 6 mg/kg/day continuous intrathecal infusion"}, "[3]": {"details": "DAHP 180 mg/kg/day i.p., started 3 or 17 days post-surgery, vs vehicle"}}}
{"compound": "Nc1cc(O)nc(N)n1", "note": "[DAHP, 2,4-Diamino-6-hydroxypyrimidine]", "values": [{"measurement": "cold allodynia", "setting": "[1]; [2]", "result": "reduced"}, {"measurement": "mechanical allodynia", "setting": "[1]; [2]", "result": "reduced"}, {"measurement": "cold pain (cold allodynia, acetone)", "setting": "[1]; [3]", "result": "reduction"}, {"measurement": "mechanical sensitivity (von Frey threshold)", "setting": "[1]; [3]", "result": "reduction in mechanical sensitivity"}, {"measurement": "dose-effect relationship, nociceptive response to mechanical or cold stimuli", "setting": "[1]; DAHP 90, 180, 270 mg/kg/day i.p.", "result": "dose-dependent relationship"}, {"measurement": "antinociceptive effect compared with L-NAME", "setting": "SNI model", "result": "stronger antinociceptive effect"}, {"measurement": "biopterin increases after SNI", "setting": "BH4 biosynthesis; DH, DRG, ScN", "result": "reversed in the DH and the ScN, but not the DRG"}, {"measurement": "neopterin increases after SNI", "setting": "BH4 biosynthesis; DRG and ScN", "result": "reversed"}]}
